Columns and labels:
[1] = Ocular safety and tolerability of the formulation, rabbit eyes; type: in vivo; conditions: dose and frequency of the HSV-1 corneal neovascularization study
Protocol: This was assessed with the dose and frequency that was used in the chemotherapeutic study of HSV-1 corneal neovascularization. FIG. 1A presents the results of slit-lamp examination (SLE) scores of the corneas of the four treatment groups beginning on post-inoculation day 2 and continuing to 25 days following infection.

[2] = test system: HSV-1 17syn+ ocular infection; test: HSV-1 ocular infection mouse model, combined clinical score (epiphora, inflammation, discharge); type: in vivo, Balb/c mice; conditions: 1% TFT, 0.01% flavopiridol, 0.1% DRB drops
Protocol: The combined clinical score was determined based on epiphora (excess tearing), inflammation and discharge. […], +1=slight manifestations, +2=moderate manifestations, and +3=severe manifestations.
All experimental procedures were performed in accordance with the ARVO Resolution for the Use of Animals in Ophthalmic and Vision Research and were approved by the Xavier University Animal Care and Use Committee. Female 20 g Balb/c mice were obtained from Charles River Laboratories. Mice were allowed to equilibrate to their surroundings for 2 weeks and then were anesthetized by intramuscular administration of xylazine (6.6 mg/kg of body weight) and ketamine (100 mg/kg of body weight). The corneas were mildly scarified in a 2×2 cross-hatch pattern and each cornea was inoculated with 5×10^5 PFU of strain HSV 17syn+. […] DNA was collected by swabbing the eyes with filter paper, and the eyes were examined with a slit-lamp on PI days 2, 4, 7, 9, 11, 14, 18 and 25. Average neovascularization/eye was scored using the formula A=(C×0.4×L×π)/2 where C=clock hours of neovascularization; 30° arc is 1 (360° circle with a total of 12); L is the length of the longest neovessel, and A is the area of neovascularization. Students scored (by eye) the animals on the days indicated in a masked fashion using the slit-lamp, and images representative of each group were taken. Clinical scores based on epiphora, inflammation and discharge were calculated where 0=no manifestations, +1=slight manifestations, +2=moderate manifestations, and +3=severe manifestations. Mice were sacrificed with CO2 on day 25 post-infection, and eyes were harvested, sectioned, stained with hematoxylin and eosin (H&E) for histological analysis based on peripheral neovascularization and leukocytic infiltration where 0=clear eyes, 0.5=either peripheral neovascularization or leukocytic infiltration, and 1=both peripheral neovascularization and leukocytic infiltration. Ex ovo chick embryo chorioallantoic membrane collagen angiogenesis assays were performed using methods as previously described (Deryugina E I and Quigley J P. Chapter 2. Chick embryo chorioallantoic membrane models to quantify angiogenesis induced by inflammatory and tumor cells or purified effector molecules. Methods Enzymol. 444:21-41. 2008). Briefly, fertilized embryos (Charles River Laboratories, Charleston, S.C.) were incubated at 37.5° C. for 3 days, removed from their shell using a Dremel tool and placed into a covered weighing boat for 7 further days of incubation. […] Four collagen onplants were added per egg on at least 3 separate eggs. After three additional days of incubation, images were taken of each plug using a mini-Vid camera (LW Scientific; Lawrenceville, Ga.) and quantified in a masked fashion based on the percentage of grids that were positive for newly formed blood vessels.
FIG. 1B is the combined clinical score for the treatment groups based on epiphora (excess tearing), inflammation, and discharge.

HUVEC = test: Endothelial cell Matrigel transwell invasion assay; type: cell-based, human; conditions: 25 ng/mL VEGF and bFGF
Protocol: After 12-16 hours, tubules were counted at low magnification and percentage of inhibition was expressed using VEGF control wells as 100%.
Migration/invasion assays were performed using 24-well, 8-μm pore size BD Biocoat Matrigel migration chambers according to the manufacturer's instructions (BD Biosciences, San Jose, Calif.). […] Cells were allowed to migrate for 16 hours at 37° C. Following incubation, cotton swabs were used to remove the cells on the top surface of the membrane, and cells on the bottom side of the membrane were fixed with 4% formaldehyde for 30 min, washed 3-5 times with PBS, and then stained with 10 μM Calcein AM (migration) or 10 μM Celltracker green-labeled (invasion). Migrating or invading cells from three repeats in two independent experiments were then counted using an inverted microscope. Data are expressed as mean percent migration and mean percent invading cells compared with untreated cells±SEM.
In addition to migration, new blood vessel formation requires that endothelial cells invade through extracellular matrix (ECM) surrounding the existing vasculature. Inhibition of invasion therefore inhibits angiogenesis. […] Celltracker green-labeled HUVEC that successfully degraded the Matrigel and crossed into the lower chamber containing 25 ng/mL VEGF and bFGF in the presence or absence of FP were counted and expressed as a percent of untreated control cells (FIG. 2B).

Structure (SMILES): CN1CC[C@H](c2c(O)cc(O)c3c(=O)cc(-c4ccccc4Cl)oc23)[C@H](O)C1 [flavopiridol]
- safety and tolerability of the formulation in the eye [1]: safe and well-tolerated
- combined clinical score (epiphora, inflammation, discharge; 0 to +3) ([2]; day 11): 0.169±0.248
- combined clinical score (epiphora, inflammation, discharge; 0 to +3) ([2]; day 25): 0.039±0.177
- invading cells as percent of untreated control (HUVEC; 50 nM flavopiridol): 67.08%±6.50
- invading cells as percent of untreated control (HUVEC; 100 nM flavopiridol): 59.74%±6.98
- invading cells as percent of untreated control (HUVEC; 200 nM flavopiridol): 32.64%±8.58

From US20180200279A1, “INHIBITION OF HSV-1-ASSOCIATED CORNEAL NEOVASCULARIZATION USING INHIBITORS OF CYCLIN-DEPENDENT KINASE 9” (XAVIER UNIVERSITY OF LOUISIANA, priority 2014, published 2018)
